Measurements taken from publication PMC6628293, “Rhamnose Binding Protein as an Anti-Bacterial Agent—Targeting Biofilm of Pseudomonas aeruginosa” (Marine Drugs, 2019).

Target: T1, rHPLOE (recombinant hemolymph plasma lectin)
T1 construct: gene hpl; E. coli codon-optimised synthetic gene hplOE in pET-23a(+), BL21(DE3) with chaperones (pG-KJE8); His-tag kept; HisTrap purified
Assay: competitive ELISA against coated PA14 biofilm extract
Design: species or system Tachypleus tridentatus
Conditions: 0.1 uM rHPLOE; 37 °C, 1 h; competitor of binding to cell-free P. aeruginosa PA14 biofilm; one-site Ki fit
Text: competitive ELISA against coated PA14 biofilm extract on rHPLOE (recombinant hemolymph plasma lectin) | The inhibitory constant (Ki) of L-rhamnose to rHPLOE interaction with the biofilm

`C[C@@H]1OC(O)[C@H](O)[C@H](O)[C@H]1O` (stereo partly drawn) [L-rhamnose] gave a Ki of 98 mM.
